Data from a melting point compilation (Tetko et al.).

Compound	melting point
O=C(O)CCC(=O)N1CCOCC1	61 to 65 °C
Cc1cc(C=O)ccc1[N+](=O)[O-]	65 to 67 °C
Cc1ccccc1-c1nnc(Cl)n1-c1ccccc1C	200 to 202 °C
O=C1CCOc2c(F)cc(F)cc21	135 to 137 °C
NS(=O)(=O)c1ccc(OCCC(=O)O)cc1	140 to 142 °C
CC(C)NS(=O)(=O)Cc1ccc(CN)cc1	148 to 150 °C
Cc1ccc(N)cc1S(=O)(=O)N1CCOCC1	186 to 188 °C
COCCOc1ccc(C(C)=O)cc1	38 to 40 °C
O=C(O)c1ccc2c(c1)S(=O)(=O)N(C1CC1)C2=O	283 to 285 °C
CC(C)(C)n1cc(C(=O)O)c(-c2ccc(F)cc2F)n1	145 to 147 °C
O=C(O)c1ccc(Cl)o1	180 to 182 °C
CCCC1(C)NC(=O)NC1=O (stereo not drawn)	123 to 125 °C
CC(C)Nc1ccc(C(=O)O)cn1	249 to 251 °C
NC(=S)N1CCCCCC1	151 to 153 °C
COC(=O)c1cc2c(OC)c(OC)c(OC)cc2[nH]1	136 to 138 °C
CN(C)c1ccc(S(=O)(=O)N(C)C)cc1N	143 to 145 °C
CC(C)(C)c1ccc(C2(N)CCCC2)cc1	120 to 122 °C
Cc1cc(C)c(C(N)=O)c(Cl)n1	172 to 174 °C
Cc1ccc(CNc2ccc3[nH]c(=O)[nH]c3c2)cc1	271 to 273 °C
Clc1nc(-c2ccccc2)cs1	55 to 57 °C
CCC(=O)NN	24 to 26 °C
O=S(=O)(Cl)N1CC2CCC1C2 (stereo not drawn)	47 to 49 °C
CCOC(=O)C1CN(C(=O)OC(C)(C)C)CCN1 (stereo not drawn)	55 to 57 °C
COc1cccc(Nc2ccccc2C(=O)O)c1	135 to 137 °C
Nc1ccccc1NC(=O)c1ccccc1I	189 to 191 °C
CC(C)[C@H](C(=O)O)N(C)C	154 to 156 °C

Compound	melting point
Cn1cnc(S(=O)(=O)NCC(=O)O)c1	211 to 213 °C
Nc1nc2cc3c(cc2s1)OC(F)(F)O3	191 to 193 °C
COc1ccc([N+](=O)[O-])cc1NS(=O)(=O)c1cc(C(=O)O)ccc1Cl	57 to 59 °C
CC(Sc1ccc([N+](=O)[O-])cc1)C(=O)O (stereo not drawn)	114 to 116 °C
Cc1sc(N)nc1-c1ccc(F)c(F)c1	135 to 137 °C
COc1ccc(Oc2ccc(N)cn2)cc1	95 to 97 °C
Cc1[nH]c(=O)c(C#N)c(C)c1CCC(=O)O	253 to 257 °C
CC(C)(C)Nc1ccc(C(N)=NO)nc1	139 to 141 °C
O=C(O)c1cnc(OCC(F)(F)F)c(Cl)c1	162 to 164 °C
COc1ccc(CCC(=O)NN)cc1	129 to 131 °C
CNC(=O)c1ccc(NC(=O)CCl)cc1	206 to 208 °C
CCOc1cc(CC#N)cc(Cl)c1OC(F)F	79 to 81 °C
O=C(CCl)Nc1ccc2c(c1)CCC2	112 to 114 °C
CNS(=O)(=O)c1ccc(Cl)c(C(F)(F)F)c1	100 to 102 °C
CS(=O)(=O)OC1CCCC(S(C)(=O)=O)C1 (stereo not drawn)	119 to 121 °C
NNC(=O)Nc1cccc(Cl)c1	107 to 109 °C
c1ccc2cc(CN3CCNCC3)ccc2c1	53 to 55 °C
CNC(=O)c1cccc(CCN)c1	110 to 112 °C
O=C(O)c1ccc(S(=O)(=O)Nc2ccccc2)cc1	225 to 228 °C
COc1ccccc1C(=O)NC(C(=O)O)C(C)C (stereo not drawn)	128 to 129 °C
CCOc1cccc2cc(C(C)=O)oc12	72 to 74 °C
CCOC(=O)c1[nH]c(C)c(C(=O)OCC)c1CC	108 to 110 °C
NNS(=O)(=O)c1ccccc1[N+](=O)[O-]	89 to 91 °C
CCN(C(=O)CCl)c1nc2ccccc2s1	233 to 235 °C
N#Cc1cc2c(nc1N)CCCC2	195 to 197 °C
Cc1cc(Oc2ccccc2)ccc1N	60 to 62 °C

Compound	melting point
CC(C)(C)c1ccc(-c2nnc(N)[nH]2)cc1	213 to 215 °C
CCn1c(C(C)=O)nc2ccccc21	76 to 78 °C
CCOc1ccc(C(=O)O)cn1	184 to 186 °C
Cc1cc(S(N)(=O)=O)c(C)cc1Br	207 to 209 °C
O=C(Nc1cccnc1)c1ccc(O)cc1	273 to 275 °C
CS(=O)(=O)c1ccc2c(c1)NCCO2	117 to 119 °C
CN(C)Cc1ccc(C(=N)N)cc1	124 to 126 °C
CCNS(=O)(=O)c1cccc(F)c1	49 to 51 °C
CC(C)c1ccc(N)c(C(=O)O)c1	96 to 98 °C
Cc1ccccc1-c1noc(S)n1	150 to 152 °C
NC(=O)CCCl	142 to 144 °C
N#CC1=C(N)CCC1	146 to 148 °C
COc1ccc2[nH]c3c(c2c1)CCCC3	59 to 61 °C
CCS(=O)(=O)CCn1ccc(N)n1	53 to 55 °C
Cn1c(N)nc2cc(F)ccc21	152 to 154 °C
CC(NC(=O)c1ccc(Br)s1)C(=O)O (stereo not drawn)	135 to 137 °C
Cc1ccc(N)cc1N1C(=O)CCC1=O	199 to 201 °C
CC1=NN(c2ccc(Br)cc2)C(=O)C1	164 to 166 °C
CN(C)S(=O)(=O)c1ccc(C#N)cc1	128 to 130 °C
O=C(NCc1ccc(F)cc1)C1CCNCC1	139 to 141 °C
N#Cc1c(C(=O)O)cc(C2CC2)[nH]c1=S	258 to 260 °C
CN(CC(=O)O)C(=O)c1cc(Cl)nnc1Cl	175 to 177 °C
CC(C)(C)c1cc(N)n(-c2cccc(Cl)c2)n1	99 to 101 °C
Nc1ccc(F)c(NC(=O)C2CCCCC2)c1	157 to 159 °C
CC(C)CC(C)(N)C(N)=O (stereo not drawn)	71 to 73 °C
CCOc1ccc(NC(=O)CCl)cc1	149 to 151 °C

Results, then the molecule that gave them:

melting point	Compound
229 to 231 °C	Cn1c(=O)oc2ccc(N)cc21
130 to 132 °C	O=C(C=NO)Nc1ccc2c(c1)OCCO2
156 to 158 °C	O=C(O)C1CCCn2ccnc21 (stereo not drawn)
129 to 131 °C	COc1ccc(Cn2cnc(N)n2)cc1
159 to 161 °C	O=C(O)C1CCCN(C(=O)C2Cc3cc(Cl)ccc3O2)C1 (stereo not drawn)
93 to 95 °C	Clc1cc(N2CCCC2)ncn1
298 to 300 °C	NC(=O)Cn1cnc2cc(C(=O)O)ccc21
95 to 97 °C	CC(C)(C)OC(=O)N1CCC(=O)C(Br)C1 (stereo not drawn)
282 to 284 °C	N#CCc1nc2cc(Cl)ccc2c(=O)[nH]1
89 to 91 °C	CC(C)(C)OC(=O)Nc1cccc2c1OCO2
213 to 215 °C	COc1ccc2c(O)ccnc2c1
111 to 113 °C	CNC(c1cccnc1)c1ccc(Cl)cc1Cl (stereo not drawn)
66 to 68 °C	OCCc1ccc2ccccc2c1
213 to 215 °C	O=Cc1c(Cl)nc2ccccn2c1=O
275 to 277 °C	O=C(O)CCC1CCNCC1
96 to 98 °C	OC1CCCc2nc(-c3ccccc3)sc21 (stereo not drawn)
98 to 100 °C	CC(C)(C)OC(=O)N1CCC(CC(=O)O)CC1
79 to 81 °C	CCCCCCOc1ccc(CC(=O)O)cc1
131 to 133 °C	Cn1cc(N2CCC(N)C2=O)cn1 (stereo not drawn)
130 to 132 °C	COc1ccc(N)cc1-n1nnnc1C
222 to 224 °C	CC(=O)c1c[nH]c2cc(F)ccc12
96 to 98 °C	CN(C=O)c1ccc(C(=O)CCl)cc1
153 to 155 °C	Cc1nc2scc(C)n2c1C=O
174 to 176 °C	NC(=O)c1ccccc1OCCC(=O)O

melting point	Compound
78 to 80 °C	COc1ccc([N+](=O)[O-])cc1CCl
215 to 217 °C	CC1CCCC(C)N1S(=O)(=O)c1ccc(N)cc1 (stereo not drawn)
134 to 136 °C	O=C1CNC(=O)N1CCBr
157 to 159 °C	COCCOc1ccc(-n2nc(C)c(C(=O)O)n2)cc1
93 to 95 °C	COC(=O)c1ccn2cncc2c1
165 to 167 °C	O=C(O)c1ccccc1SC1CCS(=O)(=O)C1 (stereo not drawn)
127 to 129 °C	CCOC(=O)c1ncccc1N
260 to 262 °C	CS(=O)(=O)c1ccc(-c2csc(N)n2)cc1
150 to 152 °C	Cc1cc(C(=O)CC#N)c(C)n1CC(F)(F)F
34 to 36 °C	CN(C)c1ccc(C#N)cc1F
232 to 234 °C	CNc1cnnc2ccccc12
157 to 161 °C	O=Cc1coc2ccc([N+](=O)[O-])cc2c1=O
137 to 139 °C	CC1(c2cccs2)NC(=O)NC1=O (stereo not drawn)
134 to 136 °C	O=C(O)CNc1ccc(C(F)(F)F)cn1
122 to 124 °C	CCCCCCOc1ccc(C(=O)O)cc1OC
88 to 90 °C	COC(=O)c1ccsc1N1CCC(N)C1=O (stereo not drawn)
150 to 152 °C	O=C1CCC(Cc2ccc(Cl)cc2)C(=O)N1 (stereo not drawn)
84 to 86 °C	O=C(O)C1SCCS1
49 to 51 °C	O=C1CCCSc2ccc(Cl)cc21
117 to 119 °C	CS(=O)(=O)C1(C(=O)O)CCCC1
219 to 221 °C	NC(=O)C1CC(C(=O)O)=NN1c1ccc(F)cc1 (stereo not drawn)
58 to 60 °C	O=C(NC1CC=CCC1)C(F)(F)F (stereo not drawn)
179 to 181 °C	CS(=O)(=O)N(c1ccc(N)cc1Br)S(C)(=O)=O
195 to 197 °C	O=C(O)CC1=NNC(=O)C1

melting point	Compound
133 to 135 °C	c1ccc(-c2ncc[nH]2)nc1
171 to 173 °C	NC(=O)Cc1ccc(OCC(=O)O)cc1
108 to 110 °C	CCNc1ncccc1N
266 to 268 °C	O=C(O)c1cccn2ccnc12
115 to 117 °C	CC(NC(=O)CC#N)c1ccccc1 (stereo not drawn)
186 to 188 °C	CC(O)CNc1nc2ccccc2[nH]1 (stereo not drawn)
200 to 202 °C	CC(=O)Nc1cc(N)ccc1Cl
207 to 209 °C	Cn1cc[nH]c(=O)c1=O
64 to 66 °C	COc1ncccc1O
164 to 166 °C	O=C1NC2(CCN(Cc3ccccc3)CC2)CO1
199 to 201 °C	Cc1ccc(SC2=C(C(=O)O)CCCC2)cc1
131 to 133 °C	O=S(=O)(Cl)C=Cc1ccc(Cl)cc1
74 to 76 °C	COc1cc(CC(=O)O)ccc1C
87 to 89 °C	COc1cc(OC)c(NC(=O)OCC(F)(F)F)cc1Cl
95 to 97 °C	CC(Cl)c1nnnn1-c1ccccc1 (stereo not drawn)
86 to 88 °C	COC(=O)c1ccccc1NC(=O)OCC(F)(F)F
232 to 234 °C	Cc1nnc(S)n1CC(N)=O
211 to 213 °C	NC(=S)Nc1ccc2c(c1)OCCO2
214 to 216 °C	O=C(O)c1cc(Cl)cc(Br)c1O
201 to 205 °C	CC1CCCCN1S(=O)(=O)c1ccc(C(=O)O)cc1 (stereo not drawn)
77 to 79 °C	Cc1cc(Br)ccc1N1CCCS1(=O)=O
126 to 128 °C	Nc1c(-c2ccccc2)ncn1N
